Values quoted from earlier work as cited in PMC13041344 (Antimicrobial Agents and Chemotherapy, 2026).

Conditions: humans; 2 g q8h as a 3-h infusion

Cmax: 46000 ng/mL
Compound: C[C@@H](O)[C@H]1C(=O)N2C(C(=O)O)=C(S[C@@H]3CN[C@H](C(=O)N(C)C)C3)[C@H](C)[C@H]12 [MEM, meropenem]
